Results taken from patent US6303630A, “Diarylsulfone non-nucleoside reverse transcriptase inhibitors of human immunodeficiency virus” (University of the Sciences in Philadelphia, priority 2000, dated 2001).
Read-outs that look alike come from different tables or passages of the source.

Columns and labels:
[1] = tested on: T4 lymphocytes (CEM cell line); assay: Cell growth / toxicity control in uninfected T4 lymphocytes (CEM), XTT-formazan; format: cell-based; conditions: for IC50: approximate values
Source text: (§1) The NCI procedure is fully described, for example, in a bulletin provided by the National Institutes of Health, National Cancer Institute, Bethesda, Md. 20892, all of which is incorporated herein by reference. As related in the NCI bulletin, the procedure is based on O. W. Weislow et al., "New soluble-formazan assay for HIV-1 cytopathic effects: application to high flux screening of synthetic and natural products for AIDS-antiviral activity", J. Natl. Cancer Inst. 81:577-586 (1989), and is used to test for compounds active against human immunodeficiency virus (HIV), and is designed to detect compounds active at any stage of the virus reproductive cycle. As further related in the NCI bulletin, the assay includes killing of T4 lymphocytes by HIV. Amounts of HIV are added to cells, with a minimum of two cycles of virus reproduction found to be necessary to obtain the required cell killing. Compounds that interact with virions, cells, or virus gene-products to interfere with viral activities will protect cells from cytolysis. All were compared with a positive (e.g., AZT-treated) control evaluation at the same time under identical conditions. The procedure is set forth as follows:
(§2) A candidate compound is first dissolved in a suitable solvent, preferably dimethyl sulfoxide, then diluted 1:100 in cell culture medium before preparing serial half-log10 dilutions. T4 lymphocytes (CEM cell line) are then added and after a brief interval HIV-1 is added, resulting in a 1:200 final dilution of the compound. Uninfected cells with the compound serve as a toxicity control, and infected and uninfected without the compound serve as basic controls. Cultures are then incubated at 37° in a 5% carbon dioxide atmosphere for 6 days. The tetrazolium salt, XTT, is added to all wells, and cultures are incubated to allow formazan color development by viable cells. Individual wells are analyzed spectrophotometrically to quantitate formazan product, and in addition are viewed microscopically for detection of viable cells and confirmation of protective activity. Drug-treated virus-infected cells are compared with drug-treated noninfected cells and with other appropriate controls (untreated infected and untreated noninfected cells, drug-containing wells without cells, etc.) on the same plate. Data are reviewed in comparison with other tests performed at the same time and a determination as to activity is made.

HIV-1 = assay: NCI in vitro anti-HIV drug screen: XTT-formazan assay, protection of T4 lymphocytes (CEM) from HIV-1 cytopathic effects; format: cell-based, human immunodeficiency virus (HIV-1); conditions: for EC50: 144 h, HIV-1 infected CEM cells, 6 days, XTT, approximate values, read-out: EC50 (50% effective concentration against HIV cytopathic effects); for inhibition at 20 µM: read-out: Percent of Protection, dose 2.00 × 10^-5 Molar; for inhibition at 6.33 µM: read-out: Percent of Protection, dose 6.33 × 10^-6 Molar; for inhibition at 0.0635 µM: read-out: Percent of Protection, dose 6.35 × 10^-8 Molar; for TI50 (IC/EC), Therapeutic Index: IC50/EC50
Method: Compounds of the present invention were evaluated for anti-HIV efficacy by the National Cancer Institute's (NCI) In Vitro Anti AIDS Drug Discovery Program.
as §1, §2

[2] = Homo sapiens, CCRF-CEM, 144 h, read-out: IC50 (50% inhibitory concentration for cell growth), uninfected CEM cells, 6 days, XTT
[3] = Homo sapiens, CCRF-CEM, dose 2.00 × 10^-4 Molar, read-out: Percent of Control, Uninfected
[4] = Homo sapiens, CCRF-CEM, dose 2.00 × 10^-5 Molar, read-out: Percent of Control, Uninfected
[5] = Homo sapiens, CCRF-CEM, dose 2.00 × 10^-6 Molar, read-out: Percent of Control, Uninfected
[6] = Homo sapiens, CCRF-CEM, dose 2.00 × 10^-7 Molar, read-out: Percent of Control, Uninfected
[7] = Homo sapiens, CCRF-CEM, dose 6.33 × 10^-6 Molar, read-out: Percent of Control, Uninfected
[8] = Homo sapiens, CCRF-CEM, dose 6.34 × 10^-7 Molar, read-out: Percent of Control, Uninfected
[9] = Homo sapiens, CCRF-CEM, dose 6.35 × 10^-8 Molar, read-out: Percent of Control, Uninfected
[10] = Human immunodeficiency virus 1, CCRF-CEM
[11] = Human immunodeficiency virus 1, CCRF-CEM, dose 2.00 × 10^-4 Molar, read-out: Percent of Protection
[12] = Human immunodeficiency virus 1, CCRF-CEM, dose 2.00 × 10^-6 Molar, read-out: Percent of Protection
[13] = Human immunodeficiency virus 1, CCRF-CEM, dose 2.00 × 10^-7 Molar, read-out: Percent of Protection
[14] = Human immunodeficiency virus 1, CCRF-CEM, dose 6.34 × 10^-7 Molar, read-out: Percent of Protection
[15] = Human immunodeficiency virus 1, Lymphocyte, dose 2.00 × 10^-6 Molar, read-out: Percent of Control, Infected
[16] = Human immunodeficiency virus 1, Lymphocyte, dose 2.00 × 10^-7 Molar, read-out: Percent of Control, Infected
[17] = Human immunodeficiency virus 1, Lymphocyte, dose 6.34 × 10^-7 Molar, read-out: Percent of Control, Infected
[18] = Human immunodeficiency virus 1, Lymphocyte, dose 6.35 × 10^-8 Molar, read-out: Percent of Control, Infected

In the case of Cc1ccc(N(C)S(=O)(=O)c2ccccc2[N+](=O)[O-])cc1 [Compound 31, N-(2-nitrophenylsulfonyl)-N,4-dimethylaniline], the IC50 [1, 2] is reported as 388 µM, the activity at 200 µM [1, 3] is reported as -0.75% and the activity at 20 µM [1, 4] is reported as 84.3%. It also gave an activity at 2 µM [1, 5] of 84.1%, an activity at 0.2 µM [1, 6] of 95.8% and an activity at 63.2 µM ([1]; Homo sapiens, CCRF-CEM, dose 6.32 × 10^-5 Molar, read-out: Percent of Control, Uninfected) of 24.6%. It also gave an activity at 6.33 µM [1, 7] of 91.1%, an activity at 0.634 µM [1, 8] of 89.9% and an activity at 0.0635 µM [1, 9] of 92.9%. It also gave an EC50 (HIV-1; [10]) of 12.5 µM, an inhibition at 200 µM (HIV-1; [11]) of -0.58% and an inhibition at 2 µM (HIV-1; [12]) of 9.89%. For the same compound, the inhibition at 0.2 µM (HIV-1; [13]) was -1.72%, the inhibition at 0.634 µM (HIV-1; [14]) was -2.85% and the inhibition at 20 µM (HIV-1; [10]) was 73.6%. The inhibition at 63.2 µM (HIV-1; Human immunodeficiency virus 1, CCRF-CEM, read-out: Percent of Protection, dose 6.32 × 10^-5 Molar) was 18.4%, the inhibition at 6.33 µM (HIV-1; [10]) was 22% and the inhibition at 0.0635 µM (HIV-1; [10]) was -3.51%. The activity at 2 µM (HIV-1; [15]) was 14.4%, the activity at 0.2 µM (HIV-1; [16]) was 3.37% and the activity at 0.634 µM (HIV-1; [17]) was 2.29%. For the same compound, the activity at 0.0635 µM (HIV-1; [18]) was 1.67% and the “TI50 (IC/EC), Therapeutic Index” value (HIV-1) was 31.0 × 10^0.

For CNc1ccccc1S(=O)(=O)c1ccccc1[N+](=O)[O-] [Example 22, 2-(2-nitrophenylsulfonyl)-N-methylaniline], the “Percent of Control, Uninfected” value ([1]; dose 2.00 × 10^-4 Molar) was 1.98%, the “Percent of Control, Uninfected” value ([1]; dose 2.00 × 10^-5 Molar) was 36.62% and the “Percent of Control, Uninfected” value ([1]; dose 2.00 × 10^-6 Molar) was 88.74%. For the same compound, the “Percent of Control, Uninfected” value ([1]; dose 2.00 × 10^-7 Molar) was 92.07%, the “Percent of Control, Uninfected” value ([1]; dose 6.32 × 10^-5 Molar) was 15.40% and the “Percent of Control, Uninfected” value ([1]; dose 6.33 × 10^-6 Molar) was 87.28%. For the same compound, the “Percent of Control, Uninfected” value ([1]; dose 6.34 × 10^-7 Molar) was 97.06%, the “Percent of Control, Uninfected” value ([1]; dose 6.35 × 10^-8 Molar) was 96.33% and the IC50 ([1]; uninfected CEM cells, 6 days, XTT, read-out: IC50 (50% inhibitory concentration for cell growth)) was 14.8 µM. The “TI50 (IC/EC), Therapeutic Index” value (HIV-1) was 1.80 × 10^+2, the “Percent of Control, Infected” value (HIV-1; dose 2.00 × 10^-4 Molar) was 6.35% and the “Percent of Protection” value (HIV-1; dose 2.00 × 10^-4 Molar, 200 µM) was 1.42%. The “Percent of Control, Infected” value (HIV-1; dose 2.00 × 10^-5 Molar) was 43.49%, the “Percent of Protection” value (HIV-1; dose 2.00 × 10^-5 Molar, 20 µM) was 40.52% and the “Percent of Control, Infected” value (HIV-1; dose 2.00 × 10^-6 Molar) was 107.31%. For the same compound, the “Percent of Protection” value (HIV-1; dose 2.00 × 10^-6 Molar, 2 µM) was 107.69%, the “Percent of Control, Infected” value (HIV-1; dose 2.00 × 10^-7 Molar) was 99.97% and the “Percent of Protection” value (HIV-1; dose 2.00 × 10^-7 Molar, 0.2 µM) was 99.97%. The “Percent of Control, Infected” value (HIV-1; dose 6.32 × 10^-5 Molar) was 5.67%, the “Percent of Protection” value (HIV-1; dose 6.32 × 10^-5 Molar, 63.2 µM) was 0.71% and the “Percent of Control, Infected” value (HIV-1; dose 6.33 × 10^-6 Molar) was 100.65%. The “Percent of Protection” value (HIV-1; dose 6.33 × 10^-6 Molar, 6.33 µM) was 100.68%, the “Percent of Control, Infected” value (HIV-1; dose 6.34 × 10^-7 Molar) was 110.38% and the “Percent of Protection” value (HIV-1; dose 6.34 × 10^-7 Molar, 0.634 µM) was 110.93%. The “Percent of Control, Infected” value (HIV-1; dose 6.35 × 10^-8 Molar) was 88.79% and the “Percent of Protection” value (HIV-1; dose 6.35 × 10^-8 Molar, 0.0635 µM) was 88.20%.

Work on CN(c1ccccc1)S(=O)(=O)c1cccc([N+](=O)[O-])c1 [Compound 14, N-(3-nitrophenylsulfonyl)-N-methylaniline] yielded an IC50 [1, 2] of 142 µM, an activity at 200 µM [1, 3] of 41.5% and an activity at 20 µM [1, 4] of 83.8%. The activity at 2 µM [1, 5] was 87.2%, the activity at 0.2 µM [1, 6] was 93.2% and the activity at 63.3 µM ([1]; Homo sapiens, CCRF-CEM, dose 6.33 × 10^-5 Molar, read-out: Percent of Control, Uninfected) was 70.2%. The activity at 6.33 µM [1, 7] was 81.3%, the activity at 0.634 µM [1, 8] was 87.8% and the activity at 0.0635 µM [1, 9] was 94.8%. It also gave an EC50 (HIV-1; [10]) of 42.5 µM, an inhibition at 200 µM (HIV-1; [11]) of 5.28% and an inhibition at 2 µM (HIV-1; [12]) of -6.93%. It also gave an inhibition at 0.2 µM (HIV-1; [13]) of -10.9%, an inhibition at 63.3 µM (HIV-1; Human immunodeficiency virus 1, CCRF-CEM, dose 6.33 × 10^-5 Molar, read-out: Percent of Protection) of 78.3% and an inhibition at 0.634 µM (HIV-1; [14]) of -13.4%. For the same compound, the inhibition at 20 µM (HIV-1; [10]) was -3.74%, the inhibition at 6.33 µM (HIV-1; [10]) was -3.87% and the inhibition at 0.0635 µM (HIV-1; [10]) was -11.1%. For the same compound, the activity at 200 µM (HIV-1; Human immunodeficiency virus 1, Lymphocyte, dose 2.00 × 10^-4 Molar, read-out: Percent of Control, Infected) was 17.6%, the activity at 20 µM (HIV-1; Human immunodeficiency virus 1, Lymphocyte, dose 2.00 × 10^-5 Molar, read-out: Percent of Control, Infected) was 9.75% and the activity at 2 µM (HIV-1; [15]) was 6.97%. It also gave an activity at 0.2 µM (HIV-1; [16]) of 3.54%, an activity at 63.3 µM (HIV-1; Human immunodeficiency virus 1, Lymphocyte, dose 6.33 × 10^-5 Molar, read-out: Percent of Control, Infected) of 81.1% and an activity at 6.33 µM (HIV-1; Human immunodeficiency virus 1, Lymphocyte, dose 6.33 × 10^-6 Molar, read-out: Percent of Control, Infected) of 16.4%. For the same compound, the activity at 0.634 µM (HIV-1; [17]) was 1.34%, the activity at 0.0635 µM (HIV-1; [18]) was 3.37% and the “TI50 (IC/EC), Therapeutic Index” value (HIV-1) was 3.34 × 10^0.
